Bridge positions count the residues as written; N and C are the ends. Square brackets hold non-standard residues; d marks the D form. Peptide text beside a SMILES is read from it. * marks the point of attachment. DO3A(CH2CH2SO2CH2CH2) = O=C(O)CN1CCN(CCS(=O)(=O)CC*)CCN(CC(=O)O)CCN(CC(=O)O)CC1; Ala(4-thiazolyl) = N[C@@H](Cc1cscn1)C(=O)O
Columns and labels:
[1] = target: T1, HEK293 cells transfected with human GCGR (Homo sapiens, UniProt P47871); assay: cellular internalization assay; format: cell-based
T1 construct: expressed in transfected cells; host or cells: HEK293
Procedure: The assay was also performed at 4 °C (5% CO2) for 60 and 120 min to suppress internalization. The exact number of cells in each well was assessed by cell counter. After incubation, the hot media containing the radioligand was removed and the cells washed with serum-free media two to three times while cells were put on ice.
To measure membrane bound and internalized radioligand, cells were treated first with 0.2 M glycine buffer containing 4 M urea (pH 2.5) (acid wash buffer) and secondly 1 M NaOH (basic wash buffer).
Briefly, first 0.5 mL of acid wash buffer was added to the cells and allowed to incubate for 5 min on ice. The supernatant was then removed and measured in a well counter (membrane bound fraction) (Uppsala Imanet AB, Uppsala, Sweden). The cells were washed one time, before 0.5 mL of basic wash buffer was added and allowed to incubate for 30 min at 37 °C. Then, the detached cells were collected and measured by well counter (internalized fraction). All samples were repeated in triplicates.
The well counter data for each dish and condition was decay corrected to the time at the start of each experiment and expressed as Bq. The internalized and the total cell-associated (internalized + cell membrane bound) fractions were expressed as percentage of the total added radioligand per million of cells (%ID/M cells). […]

[2] = tested on: GCGR in NHP liver sections; assay: in vitro autoradiography, liver sections; format: binding, cynomolgus monkey (NHP)
Procedure: Liver and pancreas tissues were collected post-mortem from cynomolgus monkeys (NHP) and Sprague Dawley rats. The use of animal tissues collected post-mortem was approved by the Animal Research Ethical Committee of the Uppsala Region and was performed according to the Uppsala university guidelines on animal experimentation (UFV 2007/724).
(§1) Sections were added in duplicates in each individual assay, and each experiment was repeated at least three times with different batches of radioligand, except for rat sections that were only performed in one assay.
(§2) After incubation, the sections were washed three times in 150 mL PBS. Sections were carefully dried at 37 °C and then exposed against a digital phosphorimager plate overnight together with a 10-μl droplet of radioactive reference (cross-calibrated against a gamma counter) on an absorbent paper attached to an object glass. The phosphor imager plates were scanned using a Cyclone Plus Phosphor imager (Perkin Elmer) at 600 dpi, and the resulting autoradiograms analyzed by ImageJ software (NIH, Bethesda). Pixel values in counts/mm^2 were converted to Bq/mm^2 by the included reference. Bq/mm^2 was further converted to fmol/mm^2 by the known specific radioactivity (fmol/Bq) of each batch of radiopharmaceutical.

[3] = in vitro autoradiography, pancreas sections; format: binding; settings: human pancreas, 5–10 nM tracer, n = 3
Procedure: Biopsies from donor human liver and pancreas were obtained from Uppsala Biobank (sample collection 827), and their use was approved by local ethical review board (EPN 2015/401).
as §1, §2

[4] = human predicted dosimetry (OLINDA/EXM 1.1, from rat biodistribution)
Procedure: The dosimetry calculations were performed as described previously for [^68Ga]Ga-DO3A-VS-Cys^40-Exendin4 [11].
Briefly, animal-derived tissue uptake was normalized to that of human tissues (using tissue weights of whole body adult reference male and female phantoms). The normalized SUVs were then un-decay corrected to their respective time point to reflect the actual radiation burden in each tissue. The tissue residence times (MBq-h/MBq) were assessed by trapezoidal approximation of the un-decay-corrected human SUV biodistribution data. The tissue washout from the last time point (180 min) to infinity was estimated by a single mono-exponential fit.
The estimation of the absorbed dose was performed by the OLINDA/EXM 1.1 software (Vanderbilt University, USA) where the calculations were based on the adult reference male or female phantoms to obtain the intended absorbed dose estimate in humans (ICRP60). The organ-specific doses are reported as mGy/MBq (effective dose as mSv/MBq). The amount of MBq that can be safely administered annually (MBq/year) was calculated for each organ as well as the effective dose, by dividing the limiting dose (10 mSv/year for the effective dose, 150 mGy/year for all tissues except for the red marrow and uterus with 50 mGy/year) by the dose (mGy/MBq or mSv/MBq).

[5] = extrapolated from rat biodistribution

T1 sequence (P47871 26-477): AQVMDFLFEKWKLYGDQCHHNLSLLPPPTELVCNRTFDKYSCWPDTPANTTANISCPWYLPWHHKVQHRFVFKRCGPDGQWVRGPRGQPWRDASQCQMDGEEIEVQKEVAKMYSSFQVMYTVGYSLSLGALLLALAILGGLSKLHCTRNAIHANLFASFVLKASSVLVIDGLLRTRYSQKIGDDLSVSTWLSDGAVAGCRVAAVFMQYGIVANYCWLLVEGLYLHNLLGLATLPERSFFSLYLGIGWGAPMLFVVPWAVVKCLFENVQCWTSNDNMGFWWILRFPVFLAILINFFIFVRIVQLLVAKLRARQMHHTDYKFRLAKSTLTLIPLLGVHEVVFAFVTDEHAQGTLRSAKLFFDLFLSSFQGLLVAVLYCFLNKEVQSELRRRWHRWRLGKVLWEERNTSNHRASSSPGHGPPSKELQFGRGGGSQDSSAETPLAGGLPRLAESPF

CC[C@H](C)[C@H](NC(=O)[C@H](Cc1ccccc1)NC(=O)[C@H](CCC(=O)O)NC(=O)[C@@H]1CCCCNC(=O)CC[C@H](NC(=O)[C@H](CC(=O)O)NC(=O)[C@H](CC(C)C)NC(=O)[C@H](CCC(N)=O)NC(=O)[C@H](CCCCN)NC(=O)[C@H](CO)NC(=O)[C@H](Cc2ccc(O)cc2)NC(=O)[C@H](CC(=O)O)NC(=O)[C@H](CO)NC(=O)[C@@H](NC(=O)[C@H](Cc2ccccc2)NC(=O)[C@@H](NC(=O)CNC(=O)[C@H](CCC(N)=O)NC(=O)[C@@H](CO)NC(=O)[C@@H](N)Cc2cscn2)[C@@H](C)O)[C@@H](C)O)C(=O)N[C@@H](CCC(N)=O)C(=O)N[C@@H](CCCNC(=N)N)C(=O)N[C@@H](C)C(=O)N1)C(=O)N[C@@H](CCC(=O)O)C(=O)N[C@@H](Cc1c[nH]c2ccccc12)C(=O)N[C@@H](CC(C)C)C(=O)N[C@@H](CC(C)C)C(=O)N[C@@H](C)C(=O)N[C@H](C(=O)NCC(=O)N1CCC[C@H]1C(=O)N[C@@H](CCC(=O)O)C(=O)N[C@@H](CO)C(=O)NCC(=O)N[C@@H](C)C(=O)N1CCC[C@H]1C(=O)N1CCC[C@H]1C(=O)N1CCC[C@H]1C(=O)N[C@@H](CO)C(=O)N[C@@H](CSCCS(=O)(=O)CCN1CCN(CC(=O)O)CCN(CC(=O)O)CCN(CC(=O)O)CC1)C(N)=O)[C@@H](C)O [[^68Ga]Ga-DO3A-S01-GCG, metal not drawn] (H-[Ala(4-thiazolyl)][dS]QGTFTSDYSKQLDEQRAKEFIEWLLATGPESGAPPPSC(DO3A(CH2CH2SO2CH2CH2))-NH2; lactam 16-20)
binding to GCGR-transfected cells at steady state / plateau (total cell-associated) ([1]; 3–7 nM tracer, RT, after 60–120 min (S01) or 60 min (S02), triplicates, 3 batches): approximately 65 % ID/million cells | effect of cooling on internalization ([1]; 4 °C, 60 and 120 min): suppressed almost completely | effect of GLP-1 in excess on tracer binding to liver sections ([2]; 1 μM GLP-1): did not induce inhibition | inhibition of tracer binding to liver sections by co-incubation with own precursor peptide ([2]; 10 μM precursor): did not increase the degree of inhibition | inhibition of tracer binding to liver sections by co-incubation with GCG ([2]; 5–10 nM tracer, 10 μM GCG, 60 min RT, n = 3 (S01), n = 4 (S02)): > 60% | binding in pancreas sections [3]: Only background binding | human predicted absorbed dose, kidneys [4, 5]: 0.53 mGy/MBq | human predicted whole body effective dose [4, 5]: 20.2 μSv/MBq | calculated maximal annual dosing, limited by whole body effective dose ([4]; limit 10 mSv/year): 495 MBq | calculated maximal annual dosing, by bone marrow absorbed dose ([4]; limit 50 mGy/year): > 2000 MBq | calculated maximal annual dosing, limited by kidney dose ([4]; limit 150 mGy/year): 278 MBq

Reference: PMC6377692 (EJNMMI Research, 2019)
